Measurements published in the CheMixHub ionic liquid set.
± gives the uncertainty stated by the source.

Assay: xn = mol fraction of the nth substance listed
Conditions: 101 kPa

CCCCCCCCCCCCCCCC[n+]1ccccc1.O=C([O-])C(O)c1ccccc1 + CC(C)[C@H](N)C(=O)O + O
electrical conductivity [S/m]
Conditions | 293.15 K | 298.15 K | 303.15 K
x1 = 9.1e-07, x2 = 0.0009002 | 0.00089 ± 0.00081 | 0.00101 ± 0.00096 | 0.0011 ± 0.001
x1 = 9.1e-07, x2 = 0.001799 | 0.00133 ± 0.00086 | 0.00151 ± 0.00098 | 0.0017 ± 0.0011
x1 = 1.08e-06, x2 = 0 | 0.00061 ± 0.00098 | 0.00068 ± 0.0011 | 0.00076 ± 0.0012
x1 = 1.98e-06, x2 = 0 | 0.001 ± 0.001 | 0.0012 ± 0.0012 | 0.0013 ± 0.0013
x1 = 2e-06, x2 = 0.001799 | 0.00178 ± 0.00087 | 0.00203 ± 0.00097 | 0.0023 ± 0.0011
x1 = 2.17e-06, x2 = 0.0009002 | 0.0013 ± 0.0011 | 0.0015 ± 0.0011 | 0.0017 ± 0.0012
x1 = 2.88e-06, x2 = 0 | 0.00147 ± 0.00099 | 0.0016 ± 0.0011 | 0.0018 ± 0.0012
x1 = 3.09e-06, x2 = 0.001799 | 0.00218 ± 0.0009 | 0.0025 ± 0.001 | 0.0028 ± 0.0011
x1 = 3.26e-06, x2 = 0.0009002 | 0.00176 ± 0.00084 | 0.002 ± 0.00095 | 0.0022 ± 0.001
x1 = 3.96e-06, x2 = 0 | 0.0019 ± 0.001 | 0.0022 ± 0.0011 | 0.0024 ± 0.0013
x1 = 4e-06, x2 = 0.001799 | 0.00257 ± 0.00091 | 0.0029 ± 0.001 | 0.0032 ± 0.0011
x1 = 4.53e-06, x2 = 0.0009002 | 0.00226 ± 0.00084 | 0.00256 ± 0.00094 | 0.0029 ± 0.001
x1 = 4.69e-06, x2 = 0 | 0.0023 ± 0.001 | 0.0026 ± 0.0011 | 0.0029 ± 0.0013
x1 = 5.1e-06, x2 = 0.001799 | 0.00299 ± 0.0009 | 0.0034 ± 0.001 | 0.0038 ± 0.0011
x1 = 5.95e-06, x2 = 0 | 0.00281 ± 0.00098 | 0.0032 ± 0.0011 | 0.0035 ± 0.0012
x1 = 5.98e-06, x2 = 0.0009002 | 0.00283 ± 0.00083 | 0.0032 ± 0.00094 | 0.0036 ± 0.001
x1 = 6.37e-06, x2 = 0.001799 | 0.00351 ± 0.0009 | 0.004 ± 0.001 | 0.0044 ± 0.0011
x1 = 7.21e-06, x2 = 0 | 0.00341 ± 0.00095 | 0.0038 ± 0.0011 | 0.0042 ± 0.0012
x1 = 7.42e-06, x2 = 0.0009002 | 0.00334 ± 0.00084 | 0.00378 ± 0.00095 | 0.0042 ± 0.0011
x1 = 7.83e-06, x2 = 0.001799 | 0.00405 ± 0.00087 | 0.00458 ± 0.00099 | 0.0051 ± 0.0011
x1 = 8.83e-06, x2 = 0 | 0.00406 ± 0.00092 | 0.0046 ± 0.001 | –
x1 = 8.87e-06, x2 = 0.0009002 | 0.00384 ± 0.0008 | 0.00435 ± 0.00091 | –
x1 = 9.28e-06, x2 = 0.001799 | 0.00457 ± 0.00085 | 0.00517 ± 0.00096 | –
x1 = 1.032e-05, x2 = 0.0009002 | 0.00431 ± 0.00078 | 0.00487 ± 0.00089 | –
x1 = 1.045e-05, x2 = 0 | 0.00469 ± 0.00089 | 0.0053 ± 0.001 | –
x1 = 1.074e-05, x2 = 0.001799 | 0.00499 ± 0.00082 | 0.00564 ± 0.00092 | –
x1 = 1.177e-05, x2 = 0.0009002 | 0.00466 ± 0.00079 | 0.00529 ± 0.00089 | –
x1 = 1.201e-05, x2 = 0.001799 | 0.00536 ± 0.0008 | 0.00607 ± 0.00091 | –
x1 = 1.207e-05, x2 = 0 | 0.00516 ± 0.00088 | 0.0058 ± 0.001 | –
x1 = 1.322e-05, x2 = 0.0009002 | 0.00502 ± 0.00078 | 0.00569 ± 0.00089 | –
x1 = 1.347e-05, x2 = 0.001799 | 0.00572 ± 0.00082 | 0.00647 ± 0.00093 | –
x1 = 1.351e-05, x2 = 0 | 0.00562 ± 0.00086 | 0.00631 ± 0.00097 | –
x1 = 1.431e-05, x2 = 0.0009002 | 0.00533 ± 0.00073 | 0.00604 ± 0.00081 | –
x1 = 1.474e-05, x2 = 0.001799 | 0.00607 ± 0.00083 | 0.00687 ± 0.00094 | –
x1 = 1.478e-05, x2 = 0 | 0.00603 ± 0.0009 | 0.0068 ± 0.001 | –
x1 = 1.557e-05, x2 = 0.0009002 | 0.00565 ± 0.00094 | 0.0064 ± 0.00085 | –
x1 = 1.583e-05, x2 = 0.001799 | 0.00637 ± 0.00088 | 0.0072 ± 0.00099 | –
x1 = 1.622e-05, x2 = 0 | 0.00644 ± 0.00092 | 0.0072 ± 0.001 | –
x1 = 1.666e-05, x2 = 0.0009002 | 0.006 ± 0.001 | 0.00675 ± 0.00093 | –
x1 = 1.766e-05, x2 = 0 | 0.00687 ± 0.00093 | 0.0077 ± 0.001 | –
